Test system: T1, phytase from A. terreus
T1 construct: gene phyA; native, secreted; purified from solid-state culture on wheat bran (acetone, Sephadex G100, Sepharose 4B); 85 kDa subunit by SDS-PAGE
Test: released inorganic phosphate, ammonium molybdate colorimetry at […] nm
Format: biochemical, Aspergillus terreus
Details: standard assay: potassium phosphate buffer pH 7.4, 40 °C, 15 min, table title misprinted as A. flavus GST

SMILES	Km
O=P(O)(O)O[C@H]1[C@H](OP(=O)(O)O)[C@@H](OP(=O)(O)O)[C@H](OP(=O)(O)O)[C@@H](OP(=O)(O)O)[C@H]1OP(=O)(O)O [Phytic acid]	25 µM
Nc1ncnc2c1ncn2[C@@H]1O[C@H](COP(=O)(O)OP(=O)(O)OP(=O)(O)O)[C@@H](O)[C@H]1O [ATP]	190 µM
O=P(O)(O)OC[C@H]1OC(O)(COP(=O)(O)O)[C@@H](O)[C@@H]1O (stereo partly drawn) [Fructose 1,6-diphosphate]	280 µM
